Results: patent publication US9896445B2, “Heterocyclic inhibitors of ERK1 and ERK2 and their use in the treatment of cancer” (Asana Biosciences, LLC, priority 2015, dated 2018)

Experiments:
ERK1 = biological target: T1, ERK1 (Homo sapiens, UniProt P27361); experiment: ERK1 HTRF (biochemical) assay; settings: HTRF
T1 construct: purchased Jubilant Biosys
Experimental: ERK1 and ERK2 HTRF (Biochemical) Assays
These assays employed a homogeneous time resolved fluorescence (HTRF) technique. […] The plate was incubated at room temperature for 60 min with shaking. […] The IC50 values (half maximal inhibitory concentration values) were subsequently determined using a sigmoidal dose-response curve (variable slope) in GraphPad Prism® 5 software.

ERK2 = biological target: T2, ERK2 (Homo sapiens, UniProt P28482); experiment: ERK2 HTRF (biochemical) assay; settings: HTRF
T2 construct: purchased Jubilant Biosys
T2 sequence (P28482 whole entry): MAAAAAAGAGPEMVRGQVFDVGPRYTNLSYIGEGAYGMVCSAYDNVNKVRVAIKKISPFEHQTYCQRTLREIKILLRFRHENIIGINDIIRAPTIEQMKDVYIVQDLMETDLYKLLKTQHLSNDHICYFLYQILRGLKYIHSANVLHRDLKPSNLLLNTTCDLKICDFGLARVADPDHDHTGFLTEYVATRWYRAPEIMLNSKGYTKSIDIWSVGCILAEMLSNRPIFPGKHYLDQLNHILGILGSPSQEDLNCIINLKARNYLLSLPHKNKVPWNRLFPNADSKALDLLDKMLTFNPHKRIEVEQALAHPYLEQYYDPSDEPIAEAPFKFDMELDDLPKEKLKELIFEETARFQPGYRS
Summary of the method: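 Compounds were tested as half-log dilutions from 0.0005 to 10 uM in Tris pH 7.5/MgCl2 buffer, with a substrate mix of 1 uM biotin-MBP peptide and 24 uM ATP and an enzyme mix of 25 nM ERK2. Reaction ran 60 min at room temperature. Phospho-MBP was detected by HTRF (Eu-anti-phospho-MBP/SA-APC, 665/620 nm), and IC50 was fitted with a variable-slope sigmoidal curve.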

T1 sequence (P27361 whole entry): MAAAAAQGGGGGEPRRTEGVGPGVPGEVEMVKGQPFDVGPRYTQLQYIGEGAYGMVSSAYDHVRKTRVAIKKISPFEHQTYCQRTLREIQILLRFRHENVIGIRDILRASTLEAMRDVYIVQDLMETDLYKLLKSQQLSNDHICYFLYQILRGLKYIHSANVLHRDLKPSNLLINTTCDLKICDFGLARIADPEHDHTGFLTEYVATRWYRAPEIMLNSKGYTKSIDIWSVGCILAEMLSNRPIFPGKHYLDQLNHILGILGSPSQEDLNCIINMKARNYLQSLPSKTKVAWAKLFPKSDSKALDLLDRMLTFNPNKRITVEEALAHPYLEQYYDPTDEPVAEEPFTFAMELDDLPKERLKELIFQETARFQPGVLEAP

Compound | IC50 (ERK1) [nM] | IC50 (ERK2) [nM]
Cc1cnc(NC2CCOCC2)nc1-n1cnc(C(=O)NC(CO)c2ccc(Cl)s2)c1 (stereo not shown) [Example 257, N-(1-(5-chlorothiophen-2-yl)-2-hydroxy-ethyl)-1-(5-methyl-2-((tetrahydro-2H-pyran-4-yl)amino)-pyrimidin-4-yl)-1H-imidazole-4-carboxamide] | < 50 | ≤ 50
Cc1cnc(Nc2ccc(F)cc2)nc1-n1cnc(C(=O)NCc2cccc(Cl)c2CO)c1 [Example 262, N-(3-chloro-2-(hydroxymethyl)benzyl)-1-(2-((4-fluorophenyl)-amino)-5-methyl-pyrimidin-4-yl)-1H-imidazole-4-carbox amide] | < 50 | ≤ 50
Cc1cnc(N[C@@H]2CCOC2)nc1-n1cnc(C(=O)N[C@H](CN)c2cccc(Cl)c2)c1 [Example 264, N-((S)-2-amino-1-(3-chlorophenyl)-ethyl)-1-(5-methyl-2-(((R)-tetrahydrofuran-3-yl)amino)pyrimidin-4-yl)-1H-imidazole-4-carboxamide] | < 50 | ≤ 50
Cc1cnc(NC2CCOCC2)nc1-n1cnc(C(=O)NC(CN)c2cccs2)c1 (stereo not shown) [Example 267, N-(2-amino-1-(thiophen-2-yl)ethyl)-1-(5-methyl-2-((tetrahydro-2H-pyran-4-yl)amino)-pyrimidin-4-yl)-1H-imidazole-4-carboxamide] | < 50 | ≤ 50
Cc1cnc(NC2COC2)nc1-n1cnc(C(=O)N[C@H](CN)c2cccc(Cl)c2)c1 [Example 268, (S)-N-(2-amino-1-(3-chlorophenyl)-ethyl)-1-(5-methyl-2-(oxetan-3-ylamino)pyrimidin-4-yl)-1H-imidazole-4-carboxamide] | < 50 | ≤ 50

More lines, now with the values ahead:

IC50 (ERK1) [nM] | IC50 (ERK2) [nM] | Compound
< 50 | ≤ 50 | Cc1cnc(Nc2ccc(F)c(N3CCOCC3)c2)nc1-n1cnc(C(=O)NC(CN)c2cccc(Cl)c2)c1 (stereo not shown) [Example 256, N-(2-amino-1-(3-chlorophenyl)ethyl)-1-(2-((4-fluoro-3-morpholinophenyl)amino)-5-methyl-pyrimidin-4-yl)-1H-imidazole-4-carboxamide]
< 50 | ≤ 50 | Cc1cnc(NC2CCOCC2)nc1-n1cnc(C(=O)NC(CO)c2cccc(C(C)(C)C)c2)c1 (stereo not shown) [Example 258, N-(1-(3-(tert-butyl)phenyl)-2-hydroxyethyl)-1-(5-methyl-2-((tetrahydro-2H-pyran-4-yl)amino)-pyrimidin-4-yl)-1H-imidazole-4-carboxamide]
< 50 | ≤ 50 | Cc1cnc(NC(CO)CO)nc1-n1cnc(C(=O)N[C@H](CO)c2cccc(Cl)c2)c1 [Example 260, (S)-N-(1-(3-chlorophenyl)-2-hydroxyethyl)-1-(2-((1,3-dihydroxy-propan-2-yl)amino)-5-methylpyrimidin-4-yl)-1H-imidazole-4-carboxamide]
< 50 | ≤ 50 | Cc1ccc(C(CO)NC(=O)c2cn(-c3nc(NC4CCOCC4)ncc3C)cn2)s1 (stereo not shown) [Example 261, N-(2-hydroxy-1-(5-methylthiophen-2-yl)ethyl)-1-(5-methyl-2-((tetrahydro-2H-pyran-4-yl)amino)-pyrimidin-4-yl)-1H-imidazole-4-carboxamide]
< 50 | ≤ 50 | Cc1cnc(N[C@@H]2CCOC2)nc1-n1cnc(C(=O)N[C@H](CO)c2cccc(Cl)c2)c1 [Example 265, N-((S)-1-(3-chlorophenyl)-2-hydroxyethyl)-1-(5-methyl-2-(((R)-tetrahydrofuran-3-yl)amino)pyrimidin-4-yl)-1H-imidazole-4-carboxamide]
< 50 | ≤ 50 | Cc1cnc(Nc2ccc3c(c2)OCO3)nc1-n1cnc(C(=O)N[C@H](CN)c2cccc(Cl)c2)c1 [Example 266, (S)-N-(2-amino-1-(3-chlorophenyl)-ethyl)-1-(2-(benzo[d][1,3]dioxol-5-ylamino)-5-methylpyrimidin-4-yl)-1H-imidazole-4-carboxamide]
